Test results reported in US20200121697A1, “METHODS FOR DIAGNOSING AND TREATING CACHEXIA” (Aurin Biotech Inc., priority 2017, published 2020).

What was measured:
salivary TNFα = assay: Salivary TNFα levels (ELISA) and cachexia symptoms in cachexic cancer patients under oral treatment; format: in vivo, human
Excerpt: Endogenous TNFα production can be measured by ELISA. The data reported herein used the Peprotech human TNFα kit (catalog 900-T25) following directions of the manufacturer. Alternative ELISA methods, not relying on commercial manufacturers, could be employed. […] This standard curve was used to calculate TNFα production in various organs and in saliva as presented herein.
The stabilization step may involve known methods for stabilizing TNFα, such as those described by Lee et al. (2017), incorporated herein by reference.
The detection step is designed to treat the stabilized saliva sample with an TNFα antibody in such a way as to bind essentially all of the TNFα present in the sample. The detection step may involve an immunoassay, such as an ELISA test based on an antigen-antibody reaction using TNFα as the antigen to be measured. For example, the capture antibody may be a polyclonal antibody specific for TNFα. […] In some embodiments the second TNFα antibody may be a monoclonal antibody, such as a mouse monoclonal antibody. Biotin may then be bound to the monoclonal antibody or to a third IgG antibody to which biotin is bound. The biotin levels are detected by first treating with a streptavidin solution linked with horse radish peroxidase (HRP) followed by treatment with a tetramethylbenzidine solution to detect the HRP by reading the resulting color in a spectrophotometer. An ELISA standard concentration graph of target TNFα may be obtained, for example, by absorbance detection, fluorescence detection, luminescence detection, or electrochemical detection. […] Alternatively, the immunoassay may be performed by a method capable of directly or indirectly detecting TNFα. Examples of such alternative methods include MS (Mass Spectrometry), MS/MS, and liquid chromatography.
The invention can be further understood by reference to the following examples, which are provided by way of illustration and are not meant to be limiting. The examples are of human cancer cases that had become cachexic. The patients had salivary TNFα levels ranging from 405 to 462 pg/ml. The TNFα in these cases was restored to normal levels by treatment with DAS (4,4′-diacetoxy-1,1 biphenyl-3,3′ dicarboxylic acid) or APAC for 10-21 days. […] They also support the fact that complement is required for TNFα production.

TNFα [1] = target: TNFα (Homo sapiens, UniProt P01375); assay: Binding of APAC and DAS to TNFα / TNFα peptide; settings: 0-5 nmol/ml of DAS and 0-175 nmol/ml of TNFα peptide, FIG. 10
Protocol: (§1) A 12-mer peptide spot array was synthesized on a cellulose membrane using a Semi-automated AutoSpot robot (INTAVIS, USA) covering the 233 amino acid sequence of TNFα. A total of 112 peptides, each shifted by 2 amino acids were synthesized. The TNFα membrane was soaked in 50% methanol in 10 mM PBS (pH7.4) for 2 minutes, then washed twice with PBS. The membrane was then incubated with 1 mM of APAC or DAS in PBS (10 mM, pH7.4) for one hour at 37° C. After washing 3 times with PBS, positive images were captured with a SYPRO Ruby filter for APAC and an Alexa 680 filter for DAS by the Chemidoc MP imaging System (Bio-Rad, USA).
(§2) A strongly positive peptide sequence was chosen for synthesis of a potential inhibitor of TNFα binding. The sequence of this TNFα-A2 peptide was NH3-YLGGVFQLEKGDRLSA-COOH. It was synthesized using a standard peptide Synthesizer (Liberty Blue, CEM Inc, USA) with Wang Resin and Fmoc amino acids (GL Biochem Ltd, Shanghai, CN). After synthesis, the peptide was purified by HPLC on a C18 column (Quadarupole 6110 LC/MS, Agilent Technology, USA) with a flow phase of 0.5% trifluroacetic acid (TFA) in acetonitrile to 0.05% TFA in H2O. The eluted peptide was detected by ultraviolet light (280 nm). The peptide inhibited binding of APAC to TNFα (FIG. 9) and of DAS to TNFα (FIG. 10).

TNFα [2] = assay: Binding of APAC and DAS to TNFα / TNFα peptide
Protocol: as §1, §2

CC(=O)Oc1ccc(-c2ccc(OC(C)=O)c(C(=O)O)c2)cc1C(=O)O [DAS, 4,4′-diacetoxy-1,1 biphenyl-3,3′ dicarboxylic acid]
symptoms of cachexia (salivary TNFα; Example 4, peritoneal carcinomatosis patient, DAS 3×100 mg/day, Day 12): subsided | salivary TNFα level (salivary TNFα; Example 4, peritoneal carcinomatosis patient, DAS 3×100 mg/day, nine days into treatment (Day 12)): 161 pg/mL | salivary TNFα level (salivary TNFα; Example 4, person, stage IV peritoneal carcinomatosis and cachexia, 394 pg/ml Day 0, 406 pg/ml before start, DAS 3×100 mg/day, five days into treatment (Day 8)): 288 pg/mL | increased salivary TNFα levels of cachexic cancer patients (salivary TNFα; oral intake): rapidly reduced to normal levels | elevated salivary TNFα over time (salivary TNFα; patient with terminal colon cancer, FIG. 14): reversed | binding of DAS to a TNFα peptide as a function of the peptide concentration (TNFα [1]): linear

NC(=O)NO [hydroxyurea, reference compound]
salivary TNFα level (salivary TNFα; Example 1, terminal leukemia patient, ten days after APAC discontinued (155 pg/ml on Day 20) and hydroxyurea 500 mg×2/day begun): 228 pg/mL

TNFα-A2 peptide: synthesized TNFα sequence peptide NH3-YLGGVFQLEKGDRLSA-COOH (H-YLGGVFQLEKGDRLSA-OH)
binding of APAC to TNFα in presence of the peptide (TNFα [2]; FIG. 9): inhibited | binding of DAS to TNFα in presence of the peptide (TNFα [2]; FIG. 10): inhibited
